Data from ChEMBL document CHEMBL1129854, “Novel small molecule neurotensin antagonists: 3-(1,5-diaryl-1,5-dioxopentan-3-yl)benzoic acids” (Bioorg Med Chem Lett, 1997).

Columns and labels:
[1] = Inhibition of the binding of [3H]NT to neurotensin (NT) receptor in mouse brain tissue; type: tissue-based
HT-29 = assay: In vitro ability to inhibit the calcium mobilization induced by neurotensin (NT) in HT-29 cells; type: functional, cell-based; conditions: Homo sapiens

Compound | Ki [1] [nM] | IC50 (HT-29) [nM]
O=C(O)c1cccc(C(CC(=O)c2ccccc2)CC(=O)c2ccccc2)c1 | > 10000 | –
COc1cccc(OC)c1-c1cc(C(=O)NC2(C(=O)O)C3CC4CC(C3)CC2C4)nn1-c1ccnc2cc(Cl)ccc12 (stereo not drawn) [REMINERTANT] | 3.9 | 160
